Where two headings read alike, the source gives them in different places.
What was measured:
[1] = test system: adherence to medication regime; conditions: person
Description: As a result, taking medication becomes an automatic activity which doesn't require a high level of attention and motivation.
The individual experiences an improvement in the ability to efficiently and effectively attend to a task in hand, without also needing to expend extra cognitive effort to remember which medication to take and at what times.

[2] = test system: mood stabilisation or epileptic symptoms or events; conditions: adults, cited from earlier work

CCCC(CCC)C(=O)O.[Na] [sodium valproate, sodium di-n-propylacetic acid]
clinical outcome (case) ([1]; complex regime, no ADHD, ASD or dementia, Sodium valproate 100 mg added): enhanced ability to track their thoughts with less effort | clinical outcome (case) ([1]; sodium valproate reduced to 100 mg with dexamphetamine 40 mg): improved efficacy, cognition, organisation and compliance with medication | dose range in which control of symptoms of mania occurs ([2]; mania (e.g. bipolar disorder), Epilim product information (Sanofi-Aventis)): 1,000 to 2,000 mg/day | dose range in which control of symptoms of mania occurs ([2]; mania, Epilim product information): 20 to 30 mg/kg/day

Source: patent publication US10028971B2, “Compositions and methods for treating psychiatric disorders” (GOSFORTH CENTRE (HOLDINGS) PTY LTD., priority 2008, dated 2018)
